Measured values published in patent US20120142645A1, “NEUROACTIVE STEROID COMPOSITIONS AND METHODS OF USE FOR LOWERING CHOLESTEROL” (priority 2009, published 2012).
“Also recorded” adds a separate entry of the source.

Experiments:
[1] = single oral dose 175 mg; over the course of 4-8 hours; Roberts, 1995; cited from earlier work
[2] = test system: patients with schizophrenia or schizoaffective disorder; assay: BACS cognitive battery; same 8-week adjunctive pregnenolone trial; assay type: in vivo, human; details: for BACS Composite Z-score / BACS Digit Sequencing raw score / BACS Symbol Coding raw score / BACS Token Motor raw score / BACS Tower of London raw score / BACS Verbal Fluency raw score / BACS Verbal Memory raw score: mean, n = 9; for BACS Composite, difference PG vs placebo in Z-score change: not statistically significant (p=0.22)
Method: Study Design and Subjects. Disclosed herein is a placebo-controlled, double-blind, parallel group, randomized trial of adjunctive pregnenolone for the treatment of cognitive and negative symptoms in patients with schizophrenia or schizoaffective disorder. […] Patients received a total of 6 study visits, which took place every two weeks. […] The trial was conducted at a single site, the Durham Veterans Affairs Medical Center in Durham, N.C. The protocol was approved by the local institutional review board and conducted under FDA Investigational New Drug (IND) #71,768. The ClinicalTrials.gov number for this study is NCT00560937.
Cognitive symptoms were assessed by the Brief Assessment of Cognition in Schizophrenia (BAGS; Keefe et al., 2004; Keefe et al., 2008), and the MATRICS Consensus Cognitive Battery (Nuechterlein & Green, 2006; Nuechterlein et al., 2008). It is believed that no clinical trial to date has reported both of these cognitive assessments within the same study. The BAGS and MATRICS batteries were administered two weeks following the screening visit (following the completion of the two-week placebo lead-in phase at Visit 2), and at two 4-week intervals thereafter (at midpoint following randomization at Visit 4 and at the final visit (Visit 6).
The BAGS cognitive battery utilizes the following assessments in the respective targeted domains (Keefe et al., 2004; Keefe et al., 2008): list learning (verbal memory), digit sequencing task (working memory), token motor task (motor speed), verbal fluency (processing speed), symbol coding (attention and processing speed), and the Tower of London test (executive functions/reasoning and problem solving). The MATRICS cognitive battery utilizes the following assessments: Trail Making Test, Part A and the symbol coding subtest of the BAGS (both assess speed of processing), the Hopkins Verbal Learning Test-Revised, immediate recall (three learning trials only) [verbal learning], the Wechsler Memory Scale, 3rd ed., spatial span subtest (working memory, nonverbal), the Letter-Number Span test (working memory, verbal), the Neuropsychological Assessment Battery, mazes subtest (reasoning and problem solving), the Brief Visuospatial Memory Test-Revised (visual learning), the Category Fluency Test (animal naming) [speed of processing], the Mayer-Salovey-Caruso Emotional Intelligence Test, managing emotions branch (social cognition), and the Continuous Performance Test, Identical Pairs version (attention/vigilance) Of note, the symbol coding subtest of the BAGS was administered only once per visit at Visits 2, 4, and 6, although it is a component of both the BAGS and MATRICS cognitive batteries, in order to avoid potentially confounding practice effects.

[3] = test system: patients with schizophrenia or schizoaffective disorder; assay: Serum analytes and EKG QTc interval at screening and final visit; same trial; assay type: in vivo, human; details: for Serum LDL levels post-treatment compared to baseline: paired t-test p=0.002; for EKG QTc interval / Serum Cholesterol / Serum Glucose / Serum Prolactin / Serum TSH / Serum Triglycerides / Serum LDL / Serum HDL: mean ± SD; for Serum LDL: n = 7; for Serum HDL: n = 8
Text: During the screening visit (Visit 1), patients received a physical exam, vital signs, and electrocardiogram (EKG), as well as baseline laboratory measures consisting of serum electrolytes, glucose, creatinine, blood urea nitrogen (chemistry 7 panel), liver function tests, complete blood count (CBC), urinalysis, urine toxicology test, thyroid stimulating hormone (TSH), and prolactin, and serum pregnancy test if female. These tests were also repeated at the completion of the study (Visit 6). In addition, patients received an interim EKG 4 weeks post-randomization, as well as a serum pregnancy test if female (Visit 4). Patients also received a chemistry 7 panel, CBC, and liver function tests at Visits 2, 3, 4, and 5 (i.e., at all study visits). Psychiatric symptoms were assessed at baseline using the Scale for the Assessment of Negative Symptoms (Andreasen, 1983), the Positive and Negative Symptom Scale (PANSS; Kay et al., 1987), the Calgary Depression Rating Scale (CDRS; Addington et al., 1990), the Clinical Global Impressions Improvement (CGI-I) and Severity (CGI-S) scales, the Barnes Akathisia Scale (BAS; Barnes, 1989), the Simpson Angus Scale for Extrapyramidal Symptoms (SAS; Simpson & Angus, 1970), the Quality of Life Scale (QOL; Heinrichs et al., 1984), and the Hillside Side Effects Scale. One research nurse with five years of experience in the conduction of schizophrenia clinical trials completed both psychiatric and cognitive assessments throughout the study, and was trained to one point of divergence on each PANSS item.

[4] = Week 0 to Week 8, listed as pregnenolone

## CC(=O)[C@H]1CC[C@H]2[C@@H]3CC=C4C[C@@H](O)CC[C@]4(C)[C@H]3CC[C@]12C [PG, pregnenolone]
[1]
  Serum pregnenolone levels after single oral dose: approximately doubles
[2]; Week 0 (baseline)
  BACS Composite Z-score: −1.54
  BACS Digit Sequencing raw score: 15.78
  BACS Symbol Coding raw score: 36.89
  BACS Token Motor raw score: 46.44
  BACS Tower of London raw score: 13.22
  BACS Verbal Fluency raw score: 45.78
  BACS Verbal Memory raw score: 36.78
[2]; Week 0 to Week 8
  BACS Composite, change in Z-score: 0.60
  BACS Digit Sequencing, change in Z-score: 0.50
  BACS Digit Sequencing, difference PG vs placebo in Z-score change: 0.25 ± 0.29
  BACS Symbol Coding, change in Z-score: 0.11
  BACS Symbol Coding, difference PG vs placebo in Z-score change: −0.16 ± 0.24
  BACS Token Motor, change in Z-score: 0.40
  BACS Token Motor, difference PG vs placebo in Z-score change: 0.42 ± 0.66
  BACS Tower of London, change in Z-score: 0.82±
  BACS Tower of London, difference PG vs placebo in Z-score change: 0.61 ± 0.80
  BACS Verbal Fluency, change in Z-score: −0.05
  BACS Verbal Fluency, difference PG vs placebo in Z-score change: −0.06 ± 0.32
  BACS Verbal Memory, change in Z-score: 0.83
  BACS Verbal Memory, difference PG vs placebo in Z-score change: 0.61 ± 0.38
  BACS Composite, difference PG vs placebo in Z-score change: 0.38 ± 0.30
[2]; [4]
  BACS Composite, change in Z-score: 0.60±0.78
  BACS Digit Sequencing, difference PG vs placebo in Z-score change: 0.25
  BACS Token Motor, difference PG vs placebo in Z-score change: 0.42
  BACS Tower of London, difference PG vs placebo in Z-score change: 0.61
  BACS Verbal Memory, difference PG vs placebo in Z-score change: 0.61
  BACS Composite, difference PG vs placebo in Z-score change: approximately 0.4
[2]; Week 4
  BACS Composite Z-score: −1.04
  BACS Digit Sequencing raw score: 17.22
  BACS Symbol Coding raw score: 44.78
  BACS Token Motor raw score: 55.56
  BACS Tower of London raw score: 15.22
  BACS Verbal Fluency raw score: 45.11
  BACS Verbal Memory raw score: 39.00
[2]; Week 8
  BACS Composite Z-score: −0.93
  BACS Digit Sequencing raw score: 18.44
  BACS Symbol Coding raw score: 38.67
  BACS Token Motor raw score: 52.22
  BACS Tower of London raw score: 16.22
  BACS Verbal Fluency raw score: 45.22
  BACS Verbal Memory raw score: 43.78
[3]; 8 weeks of pregnenolone
  EKG QTc interval following treatment: no change
  Laboratory parameters including glucose, triglycerides, HDL, TSH, and prolactin, post-treatment compared to baseline: no significant changes
[3]; 8 weeks of pregnenolone, listed as Pregnenolone
  Serum LDL levels post-treatment compared to baseline: significantly decreased
[3]; 8 weeks of pregnenolone, listed as pregnenolone
  Serum LDL levels post-treatment compared to baseline: significantly reduced; also recorded: significantly decreased
[3]; 8 weeks of pregnenolone, paired t-test p=0.008
  Cholesterol levels following treatment compared to baseline: significantly decreased
[3]; Screening
  EKG QTc interval: 414.8 ± 19.2 ms
  Serum Cholesterol: 185.8 ± 43.3 mg/100 ml
  Serum Glucose: 117.9 ± 36.2 mg/100 ml
  Serum Prolactin: 7.69 ± 5.91 ng/mL
  Serum TSH: 1.45 ± 0.64 μIU/ml
  Serum Triglycerides: 194.3 ± 87.8 mg/100 ml
  Serum LDL: 119.1 ± 26.0 mg/100 ml
  Serum HDL: 39.3 ± 16.5 mg/100 ml
[3]; Week 8
  EKG QTc interval: 406.8 ± 20.9 ms
  Serum Glucose: 119.0 ± 33.5 mg/100 ml
  Serum Prolactin: 7.85 ± 6.47 ng/mL
  Serum TSH: 1.26 ± 0.72 μIU/ml
  Serum Triglycerides: 237.6 ± 119.5 mg/100 ml
  Serum HDL: 37.0 ± 17.4 mg/100 ml
[3]; Week 8, p 0.002 vs screening
  Serum LDL: 90.9 ± 29.4 mg/100 ml
[3]; Week 8, p 0.008 vs screening
  Serum Cholesterol: 166.6 ± 36.2 mg/100 ml
[3]; during the 8-week trial
  Glucose levels, serum electrolyte panels, thyroid stimulating hormone, prolactin levels, and liver function tests: unchanged
